Entries after “also recorded” stand apart in the source; their conditions may differ. Like-named read-outs stand apart in the source and are kept apart here. One block for each molecule: values may come before it.
Columns and labels:
[1] = molecular target: T1, phthalyl amidase (Xanthobacter agilis, UniProt P0C2Y0); assay: Substrate specificity of phthalyl amidase (Tables 9-11); type: biochemical; conditions: for Relative Activity: 30° C., pH 8.0
Method: the activity of phthalyl amidase against 25 compounds was determined. The compounds were divided into beta-lactams (Table 9), phthalyl amides (Table 10), and aromatic ring substituted amides (Table 11). Each reaction mixture (1 ml total volume) contained 2.5 μmol of compound and 0.3 units of enzyme (based on the chromogenic substrate) of the preparative scale purified enzyme, in 50 mM phosphate buffer, pH 8.0. The reactions were conducted at 30° C. Samples of the reaction mixture were taken at various times, and methanol (equal value) was added to stop the reaction. The samples were examined by HPLC to determine the extent of substrate hydrolysis. The amount of compound hydrolyzed was calculated from a standard curve of the test compound. All substrates were stable in buffer at 30° C. and pH 8.0 in the absence of enzyme for 24 hours.

[2] = molecular target: T1, phthalyl amidase; assay: Kinetic parameters for phthalyl amidase; type: biochemical; conditions: Table 12; 32° C., pH 8.2
Method: The kinetic parameters of the enzyme were determined for several representative substrates. Compounds II, XVII, and XVIII were tested using 0.9 μg/ml of enzyme. Compounds III and XI were tested using 5.14 μg/ml of enzyme. Substrate concentrations were between 0 and 25 mM and reaction time was between 2 and 20 minutes, depending on the substrate used. All reactions were run at 32° C. and at pH 8.2. Km is the Michaelis constant for enzyme kinetics, Vmax is the maximal rate of reaction calculated by the Michaelis-Menten equation, and Kcat is the catalytic constant for an enzyme reaction.

[3] = molecular target: T1, phthalyl amidase; assay: Influence of effectors and organic solvents on phthalyl amidase activity; type: biochemical; conditions: for % of Control Activity: 1 mM agent
Method: A typical reaction mixture consisted of 1 ml total volume and contained 0.1 mM III, 0.1 μM phthalyl amidase in 50 mM potassium phosphate buffer (pH 5.5-9.0) at 32° C. for 20 minutes. The reactions were stopped by the addition of 1 ml methanol. After removal of precipitate by centrifugation, an aliquot of the supernatant fraction (typically 30 μl) was monitored for the beta-lactam nucleus and phthalic acid by HPLC using a Zorbax C8 column (0.46×15 cm; MacMod Analytical Inc., Chadds Ford, Pa.). The two reaction products were eluted by a mobile phase constructed as continuous mixed gradients from (a) 1% ACN (acetonitrile)/0.2% TFA (trifluoroacetic acid) and (b) 80% ACN/0.2% TFA as follows: 1) 0% (b), 3min; 2) 0-50% (b), 0.5 min; 3) 50-100% (b), 3 min; 4) 100% (b), 2.5 min; 5) 100-1% (b), 0.1 min; and 6) 0% (b), 5 min.
The effect of various agents on the enzymatic activity of phthalyl amidase was determined using standard conditions (see Example 5). All agents were tested at 1 mM final concentration unless otherwise indicated.

[4] = system: Xanthobacter agilis; assay: Induction of phthalyl amidase in cultures of Xanthobacter agilis (Table 1); type: cell-based; conditions: for effect on wet weight cell mass: 48 hours growth
Method: Three compounds at different concentrations were added to aerated cultures of the organism growing at 30° C. in Bac MI medium. The compounds tested were phthalate (PAA), phthalyl glycine (PAG), and PMBL. Cells of Xanthobacter agilis were grown with aeration for 24 hours. This vegetative culture was used to inoculate Bac MI medium (50 ml) containing different concentrations of the compounds to be tested. After 48 hours growth under standard conditions, cells were harvested by centrifugation and wet weight of the cells was determined. Crude cell extracts were prepared by lysozyme treatment of the cells as in Example 1. Suspensions were briefly sonicated to break up the viscous suspension. A cell-free supernatant was obtained by centrifugation of the suspension at 14,000 rpm for 15 minutes.
Enzyme activity in cell-free lysates was determined by monitoring conversion of the chromogenic substrate 4-(2'-carboxy-N-benzoyl)amino-2-carboxy-nitrobenzene (II) to 2-nitro-5-amino benzoic acid and phthalic acid, a reaction catalyzed by phthalyl amidase as shown below: [drawing 4]
The assay reaction mixture (1 ml) consisted of 0.3 μmol of the chromogenic substrate (II) and 0.001-0.5 μg of enzyme preparation in 50 mM potassium phosphate buffer, pH 8.0 (buffer A). The enzymatic reaction was conducted at 30° C. for 10 minutes and the appearance of product was monitored at 380 nm (or 430 nm). The amount of substrate hydrolyzed was calculated from a standard curve of the amine product.

[5] = Table 11, aromatic ring substituted amides

T1 sequence (P0C2Y0 2-453): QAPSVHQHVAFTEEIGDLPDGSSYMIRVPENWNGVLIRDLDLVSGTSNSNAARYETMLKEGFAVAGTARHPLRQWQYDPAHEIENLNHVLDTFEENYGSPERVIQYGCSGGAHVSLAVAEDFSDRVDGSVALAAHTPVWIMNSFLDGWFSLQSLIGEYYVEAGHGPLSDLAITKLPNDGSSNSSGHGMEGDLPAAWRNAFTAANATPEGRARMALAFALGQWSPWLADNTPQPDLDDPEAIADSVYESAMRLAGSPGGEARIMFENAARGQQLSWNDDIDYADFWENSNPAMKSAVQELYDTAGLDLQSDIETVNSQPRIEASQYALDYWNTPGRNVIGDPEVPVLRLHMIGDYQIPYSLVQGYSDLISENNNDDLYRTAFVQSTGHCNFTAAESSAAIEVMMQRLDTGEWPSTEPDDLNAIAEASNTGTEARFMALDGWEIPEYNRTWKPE

Compound: [Cl-].[Cl-].[Mg+2] [MgCl2]
% of Control Activity [3]: 102%

Compound: O=C(O)CNC(=O)c1ccccc1C(=O)O [XI]
Relative Activity ([1]; Table 10, phthalyl amides): 31.8
Km [2]: 140 µM
Vmax [2]: 0.27 μmol/sec/μmol

Compound: O=C(O)c1cc[c]([Hg][OH])cc1 [p-HMB, parahydroxy mercuric benzoate]
% of Control Activity [3]: 65%
effect on enzyme activity ([3]; 1 mM, iodoacetic acid 10 mM): exert inhibitory activity; also recorded: significantly reduced phthalyl amidase activity; also recorded: significantly inhibited the enzyme

Compound: [Cl][Cu][Cl] [CuCl2]
% of Control Activity [3]: 36%
effect on enzyme activity ([3]; 1 mM, iodoacetic acid 10 mM, listed as Cu^++): exert inhibitory activity; also recorded: significantly inhibited the enzyme
effect on enzyme activity ([3]; 1 mM, iodoacetic acid 10 mM, listed as copper ions): significantly reduced phthalyl amidase activity

Compound: O=C(O)c1ccccc1C(=O)O [PAA, phthalate]
Cell weight ([4]; addition 1 mg/ml): 0.35 g/50 ml
Total units/mg protein ([4]; addition 1 mg/ml): 1.4 µmol/min/mg
Units/g/cells ([4]; addition 1 mg/ml): 3.9 Units/g/cells
Cell weight ([4]; addition 2 mg/ml): 0.47 g/50 ml
Total units/mg protein ([4]; addition 2 mg/ml): 4.3 µmol/min/mg
Units/g/cells ([4]; addition 2 mg/ml): 9.3 Units/g/cells
Cell weight ([4]; addition 5 mg/ml): 0.7 g/50 ml
Total units/mg protein ([4]; addition 5 mg/ml): 3.7 µmol/min/mg
Units/g/cells ([4]; addition 5 mg/ml): 5.5 Units/g/cells
Cell weight ([4]; addition 10 mg/ml): 0.6 g/50 ml
Total units/mg protein ([4]; addition 10 mg/ml): 12.0 µmol/min/mg
Units/g/cells ([4]; addition 10 mg/ml): 19.8 Units/g/cells

Compound: [Cl][Ni][Cl] [NiCl2]
% of Control Activity [3]: 94%

Compound: [Cl][Fe]([Cl])[Cl] [FeCl3]
% of Control Activity [3]: 96%

Compound: Nc1ncnc2c1ncn2[C@@H]1O[C@H](COP(=O)(O)OP(=O)(O)OP(=O)(O)O)[C@@H](O)[C@H]1O [ATP, adenosine 5triphosphate]
effect on enzyme activity ([3]; 1 mM, iodoacetic acid 10 mM): No organic co-factors, such as ATP, NADPH or others, stimulated enzyme activity

Compound: O=C(O)CNC(=O)c1ccccc1C(=O)O [PAG, phthalyl glycine]
effect on wet weight cell mass [4]: increased the wet weight cell mass
Cell weight ([4]; addition 1 mg/ml): 0.33 g/50 ml
Total units/mg protein ([4]; addition 1 mg/ml): 0.35 µmol/min/mg
Units/g/cells ([4]; addition 1 mg/ml): 1.04 Units/g/cells
Cell weight ([4]; addition 5 mg/ml): 0.5 g/50 ml
Total units/mg protein ([4]; addition 5 mg/ml): 4.4 µmol/min/mg
Units/g/cells ([4]; addition 5 mg/ml): 9.4 Units/g/cells

Compound: NC(=O)C1=CN([C@@H]2O[C@H](COP(=O)(O)OP(=O)(O)OC[C@H]3O[C@@H](n4cnc5c(N)ncnc54)[C@H](OP(=O)(O)O)[C@@H]3O)[C@@H](O)[C@H]2O)C=CC1 [NADPH, reduced form of NADP]
effect on enzyme activity ([3]; 1 mM, iodoacetic acid 10 mM): No organic co-factors, such as ATP, NADPH or others, stimulated enzyme activity

Compound: [Ca+2].[Cl-].[Cl-] [CaCl2]
% of Control Activity [3]: 89%

Compound: [Cl-].[Cl-].[Zn+2] [ZnCl2]
% of Control Activity [3]: 100%

Compound: [Cl-].[Cl-].[Co+2] [CoCl2]
% of Control Activity [3]: 101%

Compound: [Cl][Fe][Cl] [FeCl2]
% of Control Activity [3]: 102%

Compound: O=C(O)CN1C(=O)C(NC(=O)c2ccccc2C(=O)O)C1CCc1ccco1 (stereo not drawn) [PMBL, phthalyl monocyclic beta-lactam]
effect on wet weight cell mass [4]: had no effect
Cell weight ([4]; addition 1 mg/ml): 0.35 g/50 ml
Total units/mg protein ([4]; addition 1 mg/ml): 0.28 µmol/min/mg
Units/g/cells ([4]; addition 1 mg/ml): 0.79 Units/g/cells
Cell weight ([4]; addition 5 mg/ml): 0.24 g/50 ml
Total units/mg protein ([4]; addition 5 mg/ml): 2.0 µmol/min/mg
Units/g/cells ([4]; addition 5 mg/ml): 8.1 Units/g/cells

Compound: O=C(O)CN1C(=O)C(NC(=O)c2ccccc2C(=O)O)C1CCc1ccco1 (stereo not drawn) [drawing 6]
Relative Activity ([1]; Table 9, beta-lactams): 47.9

Compound: [Cl][Mn][Cl] [MnCl2]
% of Control Activity [3]: 84%

Compound: O=C(O)CI [Iodoacetate]
effect on enzyme activity [3]: exert inhibitory activity; also recorded: significantly reduced phthalyl amidase activity; also recorded: significantly inhibited the enzyme

Compound: O=C(O)CN(CCN(CC(=O)O)CC(=O)O)CC(=O)O [EDTA]
effect on enzyme activity [3]: little or no effect on enzyme activity

The next lines start with results.

Relative Activity [1, 5]: 0
Compound: CCCCCCC(C(=O)O)n1cnc(NC(=O)c2ccc(C(=O)O)cc2)c1 (stereo not drawn) [XXIII]
acceptance as substrate of the enzyme [1]: completely eliminates hydrolytic activity

Relative Activity [1, 5]: 159.00
Km [2]: 170 µM
Vmax [2]: 1.94 μmol/sec/μmol
Compound: CCCCCCC(C(=O)O)n1cnc(NC(=O)c2c(F)cccc2C(=O)O)c1 (stereo not drawn) [XVIII]

acceptance as substrate of the enzyme [1]: most active compound found
Relative Activity ([1]; Table 10, phthalyl amides): 1027.2
Compound: CCCCCCC(C(=O)O)n1cnc(NC(=O)c2ccccc2C(=O)O)c1 (stereo not drawn) [XIII]

Relative Activity [1, 5]: 100.0
Km [2]: 90 µM
Vmax [2]: 1.41 μmol/sec/μmol
Compound: CCCCCCC(C(=O)O)n1cnc(NC(=O)c2ccccc2C(=O)O)c1 (stereo not drawn) [XVII]

Relative Activity [1, 5]: 0
Compound: CCCCCCC(C(=O)O)n1cnc(NC(=O)c2cccc(O)c2)c1 (stereo not drawn) [XXVI]

effect of solvent on enzyme activity ([3]; 10% solvent): least amount of inhibition of the enzyme
Compound: OCC(O)CO [Glycerol]

Relative Activity ([1]; Table 10, phthalyl amides): 100.0
Compound: O=C(O)C1=C(Cl)CCC2C(NC(=O)c3ccccc3C(=O)O)C(=O)N12 (stereo not drawn) [VII]

Relative Activity ([1]; Table 10, phthalyl amides): 90.2
Compound: CC(C)CC(NC(=O)c1ccccc1C(=O)O)C(=O)O (racemic) [XVI]

Relative Activity ([1]; Table 9, beta-lactams): 0
Compound: O=C(O)CN1C(=O)C(NC(=O)Cc2ccccc2)C1CCc1ccco1 (stereo not drawn) [V]

Relative Activity [1, 5]: 0
Compound: CCCCCCC(C(=O)O)n1cnc(NC(=O)c2cccc(C(=O)O)c2)c1 (stereo not drawn) [XXIV]
acceptance as substrate of the enzyme [1]: completely eliminates hydrolytic activity

Relative Activity ([1]; Table 10, phthalyl amides): 40.2
Compound: O=C(O)c1ccccc1C(=O)NCc1ccccc1

Relative Activity ([1]; Table 9, beta-lactams): 0
Compound: O=C(O)CN1C(=O)C(NC(=O)c2ccccc2)C1CCc1ccco1 (stereo not drawn) [VI]

Relative Activity [1, 5]: 0
Compound: CCCCCCC(C(=O)O)n1cnc(NC(=O)c2cc(O)cc(O)c2)c1 (stereo not drawn) [XXVII]

Relative Activity ([1]; Table 9, beta-lactams): 0
Compound: O=C(O)CN1C(=O)C(NC(=O)COc2ccccc2)C1CCc1ccco1 (stereo not drawn) [IV]

Relative Activity ([1]; Table 10, phthalyl amides): 295.7
Km [2]: 50 µM
Vmax [2]: 5.95 μmol/sec/μmol
Compound: O=C(O)c1ccccc1C(=O)Nc1ccc([N+](=O)[O-])c(C(=O)O)c1 [II, 4-(2'-carboxy-N-benzoyl)amino-2-carboxy-nitrobenzene]

Relative Activity ([1]; Table 10, phthalyl amides): 544.6
Compound: O=C(O)c1ccccc1C(=O)Nc1ccc([N+](=O)[O-])cc1 [VIII]

acceptance as substrate of the enzyme [1]: acceptable
Relative Activity [1, 5]: 85.9
Compound: CCCCCCC(C(=O)O)n1cnc(NC(=O)c2ncccc2C(=O)O)c1 (stereo not drawn) [Compound XX]

acceptance as substrate of the enzyme [1]: acceptable
Relative Activity [1, 5]: 1.3
Compound: CCCCCCC(C(=O)O)n1cnc(NC(=O)c2cccc(O)c2C(=O)O)c1 (stereo not drawn) [XXI]

effect on enzyme activity ([3]; 1 mM, iodoacetic acid 10 mM): little or no effect on enzyme activity
Compound: c1cnc2c(c1)ccc1cccnc12 [Phenanthroiine, phenanthroline]

Relative Activity ([1]; Table 10, phthalyl amides): 118.5
Compound: COC(=O)[C@H](Cc1ccccc1)NC(=O)[C@H](CC(=O)O)NC(=O)c1ccccc1C(=O)O [XIV]

Relative Activity ([1]; Table 10, phthalyl amides): 220.1
Compound: CSCCC(NC(=O)c1ccccc1C(=O)O)C(=O)O (racemic) [XV]

Relative Activity ([1]; Table 10, phthalyl amides): 9.7
Compound: CC(C)NC(=O)c1ccccc1C(=O)O [XII]

Relative Activity [1, 5]: 0
Compound: CCCCCCC(C(=O)O)n1cnc(NC(=O)c2ccccc2O)c1 (stereo not drawn) [XXV]

Relative Activity [1, 5]: 0
Compound: CCCCCCC(C(=O)O)n1cnc(NC(=O)c2ccccc2)c1 (stereo not drawn) [XXVIII]

acceptance as substrate of the enzyme [1]: Low levels of hydrolysis
Relative Activity [1, 5]: 0.2
Compound: CCCCCCC(C(=O)O)n1cnc(NC(=O)c2ccccc2-c2nn[nH]n2)c1 (stereo not drawn) [XXII]

Reference: patent publication US5607850A, “Enzyme from microbial source: phthalyl amidase” (Eli Lilly and Company, priority 1995, dated 1997)
